This assay addresses T1, recombinant human NAE enzyme (Homo sapiens, UniProt Q8TBC4).
T1 construct: His (N); made in house; host or cells: Sf9 insect cells (baculovirus, Bac-to-Bac)
T1 sequence (Q8TBC4 1-463): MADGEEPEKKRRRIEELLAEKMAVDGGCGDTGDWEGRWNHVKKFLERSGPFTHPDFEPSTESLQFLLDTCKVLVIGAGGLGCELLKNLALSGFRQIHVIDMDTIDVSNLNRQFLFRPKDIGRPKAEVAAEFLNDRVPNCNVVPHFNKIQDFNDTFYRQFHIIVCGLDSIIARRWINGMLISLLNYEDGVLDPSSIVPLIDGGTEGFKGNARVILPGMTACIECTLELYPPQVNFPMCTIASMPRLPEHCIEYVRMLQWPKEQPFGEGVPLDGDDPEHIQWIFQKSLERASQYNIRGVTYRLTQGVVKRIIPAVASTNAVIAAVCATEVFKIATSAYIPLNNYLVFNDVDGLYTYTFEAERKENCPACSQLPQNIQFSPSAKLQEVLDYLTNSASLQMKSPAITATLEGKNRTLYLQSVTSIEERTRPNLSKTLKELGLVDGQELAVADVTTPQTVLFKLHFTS
T1 sequence (Q13564 1-534 partner): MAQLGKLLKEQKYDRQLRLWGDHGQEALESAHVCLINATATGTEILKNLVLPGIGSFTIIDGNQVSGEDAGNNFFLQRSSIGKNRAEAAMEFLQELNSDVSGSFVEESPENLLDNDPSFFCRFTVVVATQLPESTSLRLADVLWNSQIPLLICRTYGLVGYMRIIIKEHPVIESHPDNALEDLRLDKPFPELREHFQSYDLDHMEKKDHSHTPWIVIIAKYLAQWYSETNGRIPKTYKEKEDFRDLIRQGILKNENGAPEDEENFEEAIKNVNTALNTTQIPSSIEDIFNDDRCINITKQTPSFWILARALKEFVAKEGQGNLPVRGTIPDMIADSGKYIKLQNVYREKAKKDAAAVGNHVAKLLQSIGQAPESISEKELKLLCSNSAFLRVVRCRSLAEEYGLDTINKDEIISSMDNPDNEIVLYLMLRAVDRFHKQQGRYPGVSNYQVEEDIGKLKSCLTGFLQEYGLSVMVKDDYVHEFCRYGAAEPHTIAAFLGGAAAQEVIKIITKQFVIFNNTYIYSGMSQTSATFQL
Put plainly: Nedd8-Activating Enzyme (NAE) HTRF Assay. In kind it is biochemical. To be noted: 20 μM ATP. How it is done: Following manufacturer instructions, baculoviruses were generated with the Bac-to-Bac Expression System (Invitrogen) for the following proteins: untagged NAEα (APPBP1; NP_003896.1), N-terminally His-tagged NAEJ (UBE1C; NP_003959.3), untagged SAEα (SAE1; NP_005491.1), N-terminally His-tagged SAE3 (UBA2; NP_005490.1), N-terminally His-tagged murine UAE (UBE1X; NP_033483). NAEα/His-NAEβ and SAEα/His-SAEβ complexes were generated by co-infection of Sf9 cells, which were harvested after 48 hours. His-mUAE was generated by single infection of Sf9 cells and harvested after 72 hours. Expressed proteins were purified by affinity chromatography (Ni-NTA agarose, Qiagen) using standard buffers. Nedd8-Activating Enzyme (NAE) HTRF Assay. The NAE enzymatic reaction totaled 50 μL and contained 50 mM HEPES (pH 7.5), 0.05% BSA, 5 mM MgCl2, 20 μM ATP, 250 μM GSH, 0.01 μM Ubc12-GST, 0.075 μM Nedd8-Flag and 0.20 nM recombinant human NAE enzyme. The enzymatic reaction mixture, with and without compound inhibitor, was incubated at room temperature 24° C. for 105 minutes in a 384-well plate before termination with 25 μL of Stop/Detection buffer (0.1M HEPES pH 7.5, 0.05% Tween20, 20 mM EDTA, 410 mM KF, 0.53 nM Europium-Cryptate labeled monoclonal anti-FLAG M2 antibody (CisBio International) and 8.125 μg/mL PHYCOLINK goat anti-GST allophycocyanin (XL-APC) antibody (Prozyme)). After incubation for 1 hour at 24° C., quantification of the FRET was performed on the Analyst™ HT 96.384 (Molecular Devices).
Background: Time-resolved FRET reads energy transfer from a long-lived donor to a nearby acceptor.

As to `NS(=O)(=O)OC[C@@H]1C[C@@H](Oc2cc(OCc3ccc4ccccc4c3)ncn2)C[C@@H]1O` [Compound I-141, ((1S,2S,4R)-2-hydroxy-4-{[6-(2-naphthylmethoxy)pyrimidin-4-yl]oxy}cyclopentyl)methyl sulfamate], the IC50 runs as follows: (bound given in nM) > 500 nM; (bound given in μM) < 10000 nM.

With `NS(=O)(=O)OC[C@@H]1C[C@@H](Nc2ncnc3[nH]c(-c4ccccc4C(F)(F)F)nc23)C[C@@H]1O` [Compound I-122, [(1S,2S,4R)-2-hydroxy-4-({8-[2-(trifluoromethyl)phenyl]-9H-purin-6-yl}amino)cyclopentyl]methyl sulfamate], where the note is “bound given in nM”, the IC50 is ≤ 500 nM.

Regarding `NS(=O)(=O)OC[C@@H]1C[C@@H](Nc2ncnc3[nH]c(C4CCCCC4)nc23)C[C@@H]1O` [Compound I-128, {(1S,2S,4R)-4-[(8-cyclohexyl-9H-purin-6-yl)amino]-2-hydroxycyclopentyl}methyl sulfamate], the IC50 (bound given in nM) was ≤ 500 nM.

Take `NS(=O)(=O)OC[C@@H]1C[C@@H](Nc2ncnc3[nH]c(-c4ccccc4-c4ccccc4)nc23)C[C@@H]1O` [Compound I-48, {(1S,2S,4R)-4-[(8-biphenyl-2-yl-9H-purin-6-yl)amino]-2-hydroxycyclopentyl}-methyl sulfamate]: the IC50 is > 500 nM (bound given in nM) and < 10000 nM (bound given in μM).

As to `NS(=O)(=O)OC[C@@H]1C[C@@H](Oc2ccnc(N[C@H]3CCc4ccccc43)c2)C[C@@H]1O` [Compound I-94, [(1S,2S,4R)-4-({2-[(1S)-2,3-dihydro-1H-inden-1-ylamino]pyridin-4-yl}oxy)-2-hydroxycyclopentyl]methyl sulfamate], the IC50 is, setting by setting: (bound given in nM) > 500 nM; (bound given in μM) < 10000 nM.

`NS(=O)(=O)OC[C@@H]1C[C@@H](Nc2ncnc3[nH]c(C4CCCc5ccccc54)nc23)C[C@@H]1O` (stereo partly drawn) [Compound I-121, ((1S,2S,4R)-2-hydroxy-4-{[8-(1,2,3,4-tetrahydronaphthalen-1-yl)-9H-purin-6-yl]amino}cyclopentyl)methyl sulfamate]: where the note is “bound given in nM”, the half-maximal inhibitory concentration (IC50) was ≤ 500 nM.

Take `NS(=O)(=O)OC[C@H]1C[C@@H](Nc2cc(N[C@H]3CCc4c(F)cccc43)ncn2)[C@H](O)[C@@H]1O` [Compound I-1, {(1R,2R,3S,4R)-4-[(6-{[(1S)-4-fluoro-2,3-dihydro-1H-inden-1-yl]amino}-pyrimidin-4-yl)-amino]-2,3-dihydroxycyclopentyl}methyl sulfamate]: for the setting “bound given in nM”, the IC50 was ≤ 500 nM.

For `NS(=O)(=O)OC[C@@H]1C[C@@H](Oc2cc(OCc3cccc4ccccc34)ncn2)C[C@@H]1O` [Compound I-119, ((1S,2S,4R)-2-hydroxy-4-{[6-(1-naphthylmethoxy)pyrimidin-4-yl]oxy}cyclopentyl)methyl sulfamate], the 50% inhibitory concentration (IC50) (bound given in nM) was > 500 nM and the IC50 (bound given in μM) is < 10000 nM.

On to `CN(C)c1ccccc1-c1nc2c(N[C@@H]3C[C@@H](COS(N)(=O)=O)[C@@H](O)C3)ncnc2[nH]1` [Compound I-137, [(1S,2S,4R)-4-({8-[2-(dimethylamino)phenyl]-9H-purin-6-yl}amino)-2-hydroxycyclopentyl]methyl sulfamate], for which the half-inhibitory concentration (IC50) (bound given in nM) is ≤ 500 nM.

For the compound `NS(=O)(=O)OC[C@@H]1C[C@@H](Nc2ncnc3[nH]c(-c4cccc5c4oc4ccccc45)nc23)C[C@@H]1O` [Compound I-39, {(1S,2S,4R)-4-[(8-dibenzo[b,d]furan-4-yl-9H-purin-6-yl)amino]-2-hydroxycyclopentyl}methyl sulfamate], the IC50 (bound given in nM) was ≤ 500 nM.

With `NS(=O)(=O)OC[C@@H]1C[C@@H](Oc2cc(NCc3cccc4ccccc34)ncn2)C[C@@H]1O` [Compound I-42, [(1S,2S,4R)-2-hydroxy-4-({6-[(1-naphthylmethyl)amino]pyrimidin-4-yl}-oxy)cyclopentyl]methyl sulfamate], the IC50 (bound given in nM) was ≤ 500 nM.

On to `Cc1cccc(S(=O)(=O)c2nc3c(O[C@@H]4C[C@@H](COS(N)(=O)=O)[C@@H](O)C4)ncnc3[nH]2)c1` [Compound I-101, [(1S,2S,4R)-2-hydroxy-4-({8-[(3-methylphenyl)sulfonyl]-9H-purin-6-yl}oxy)cyclopentyl]methyl sulfamate], for which the IC50 (bound given in nM) was ≤ 500 nM.

As for `CO[C@H]1Cc2ccccc2[C@H]1Oc1cc(O[C@@H]2C[C@@H](COS(N)(=O)=O)[C@@H](O)C2)ncn1` [Compound I-96, {(1S,2S,4R)-2-hydroxy-4-[(6-{[(1R,2S)-2-methoxy-2,3-dihydro-1H-inden-1-yl]oxy}-pyrimidin-4-yl)oxy]cyclopentyl}methyl sulfamate], the IC50 by setting is: (bound given in nM) > 500 nM; (bound given in μM) < 10000 nM.

For `CO[C@H]1Cc2ccccc2[C@H]1Nc1cc(N[C@@H]2C[C@H](COS(N)(=O)=O)[C@@H](O)[C@H]2O)ncn1` [Compound I-2, {(1R,2R,3S,4R)-2,3-dihydroxy-4-[(6-{[(1R,2S)-2-methoxy-2,3-dihydro-1H-inden-1-yl]-amino}pyrimidin-4-yl)amino]cyclopentyl}methyl sulfamate], where the note is “bound given in nM”, the IC50 is ≤ 500 nM.

Consider `CO[C@H]1c2ccccc2C[C@H]1Oc1cc(O[C@@H]2C[C@@H](COS(N)(=O)=O)[C@@H](O)C2)ncn1` [Compound I-77, {(1S,2S,4R)-2-hydroxy-4-[(6-{[(1S,2R)-1-methoxy-2,3-dihydro-1H-inden-2-yl]oxy}-pyrimidin-4-yl)oxy]cyclopentyl}methyl sulfamate], for which the IC50 (bound given in nM) was > 500 nM and the half-inhibitory concentration (IC50) (bound given in μM) is < 10000 nM.

For `NS(=O)(=O)OC[C@H]1C[C@@H](Nc2ncnc3[nH]c(-c4ccccc4)nc23)[C@H](O)[C@@H]1O` [Compound I-9, {(1R,2R,3S,4R)-2,3-dihydroxy-4-[(8-phenyl-9H-purin-6-yl)amino]cyclopentyl}-methyl sulfamate], for the setting “bound given in nM”, the IC50 was ≤ 500 nM.

For `CC1CC(Nc2nccc(N[C@@H]3C[C@H](COS(N)(=O)=O)[C@@H](O)[C@H]3O)n2)c2ccccc21` (stereo partly drawn) [Compound I-10, [(1R,2R,3S,4R)-2,3-dihydroxy-4-({2-[(3-methyl-2,3-dihydro-1H-inden-1-yl)-amino]pyrimidin-4-yl}amino)cyclopentyl]methyl sulfamate], where the note is “bound given in nM”, the IC50 is ≤ 500 nM.

For `CC1(C)C[C@H](Nc2nccc(N[C@@H]3C[C@H](COS(N)(=O)=O)[C@@H](O)[C@H]3O)n2)c2ccccc21` [Compound I-15, {(1R,2R,3S,4R)-4-[(2-{[(1S)-3,3-dimethyl-2,3-dihydro-1H-inden-1-yl]amino}-pyrimidin-4-yl)amino]-2,3-dihydroxycyclopentyl}methyl sulfamate], the IC50 (bound given in nM) is ≤ 500 nM.

Consider `COc1ccccc1-c1nc2c(N[C@@H]3C[C@@H](COS(N)(=O)=O)[C@@H](O)C3)ncnc2[nH]1` [Compound I-133, ((1S,2S,4R)-2-hydroxy-4-{[8-(2-methoxyphenyl)-9H-purin-6-yl]amino}cyclopentyl)methyl sulfamate], for which the IC50 (bound given in nM) was ≤ 500 nM.

With `NS(=O)(=O)OC[C@H]1C[C@@H](Nc2cc(N[C@H]3CCc4ccccc43)ncn2)C[C@@H]1O` [Compound I-25, [(1R,2S,4R)-4-({6-[(1S)-2,3-dihydro-1H-inden-1-ylamino]pyrimidin-4-yl}amino)-2-hydroxycyclopentyl]methyl sulfamate], the IC50 (bound given in nM) was ≤ 500 nM.

With `NS(=O)(=O)OC[C@H]1C[C@@H](Nc2cc(N[C@H]3CCc4cc(F)c(F)cc43)ncn2)[C@H](O)[C@@H]1O` [Compound I-17, {(1R,2R,3S,4R)-4-[(6-{[(1S)-5,6-difluoro-2,3-dihydro-1H-inden-1-yl]amino}-pyrimidin-4-yl)amino]-2,3-dihydroxycyclopentyl}methyl sulfamate], the IC50 (bound given in nM) is ≤ 500 nM.

The term IC50 denotes the concentration needed to halve the response being measured.
